Assay results: PubChem BioAssay (NCI)
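Following 48 hours of exposure in 96-well plates, responses at five concentrations were used to interpolate endpoints linearly. GI50: concentration for 50% inhibition of growth. TGI marks complete inhibition of growth.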

Legend:
Experiment in all cases: DTP human tumour cell line panel, 48 h
CAKI-1 renal = test system: CAKI-1 renal
A549 NSCLC = test system: A549 NSCLC
T-47D breast = test system: T-47D breast
MDA-MB-231 breast = test system: MDA-MB-231 breast
SR leukemia = test system: SR leukemia
HS 578T breast = test system: HS 578T breast
UACC-257 melanoma = test system: UACC-257 melanoma
ACHN renal = test system: ACHN renal
SK-MEL-28 melanoma = test system: SK-MEL-28 melanoma
OVCAR-3 ovarian = test system: OVCAR-3 ovarian
SNB-19 CNS = test system: SNB-19 CNS
RXF 393 renal = test system: RXF 393 renal
EKVX NSCLC = test system: EKVX NSCLC
HT29 colon = test system: HT29 colon
A498 renal = test system: A498 renal
MALME-3M melanoma = test system: MALME-3M melanoma
SK-MEL-5 melanoma = test system: SK-MEL-5 melanoma
LOX IMVI melanoma = test system: LOX IMVI melanoma
HCC-2998 colon = test system: HCC-2998 colon
MOLT-4 leukemia = test system: MOLT-4 leukemia
NCI-H460 lung = test system: NCI-H460 lung
NCI-H23 lung = test system: NCI-H23 lung
OVCAR-8 ovarian = test system: OVCAR-8 ovarian
RPMI-8226 leukemia = test system: RPMI-8226 leukemia
HL-60(TB) leukemia = test system: HL-60(TB) leukemia
SW-620 colon = test system: SW-620 colon
KM12 colon = test system: KM12 colon
SK-MEL-2 melanoma = test system: SK-MEL-2 melanoma
SF-268 CNS = test system: SF-268 CNS
HCT-15 colon = test system: HCT-15 colon
MDA-MB-435 = test system: MDA-MB-435
IGROV1 ovarian = test system: IGROV1 ovarian
TK-10 renal = test system: TK-10 renal
SN12C renal = test system: SN12C renal
PC-3 prostate = test system: PC-3 prostate
CCRF-CEM leukemia = test system: CCRF-CEM leukemia
U251 CNS = test system: U251 CNS
SNB-75 CNS = test system: SNB-75 CNS
SK-OV-3 ovarian = test system: SK-OV-3 ovarian
HOP-92 NSCLC = test system: HOP-92 NSCLC
OVCAR-4 ovarian = test system: OVCAR-4 ovarian
OVCAR-5 ovarian = test system: OVCAR-5 ovarian
HOP-62 NSCLC = test system: HOP-62 NSCLC
SF-295 CNS = test system: SF-295 CNS
NCI-H522 lung = test system: NCI-H522 lung
MCF7 breast = test system: MCF7 breast
DU-145 prostate = test system: DU-145 prostate
BT-549 breast = test system: BT-549 breast
SF-539 CNS = test system: SF-539 CNS
COLO 205 colon = test system: COLO 205 colon
K-562 leukemia = test system: K-562 leukemia
NCI/ADR-RES ovarian = test system: NCI/ADR-RES ovarian
NCI-H226 lung = test system: NCI-H226 lung
UACC-62 melanoma = test system: UACC-62 melanoma
HCT-116 colon = test system: HCT-116 colon

In the case of `Clc1ccc(Nc2nc(Nc3ccccc3)nc(Nc3ccc(-c4cc(-c5ccc(Cl)cc5)on4)cc3)n2)cc1`, the GI50 (CAKI-1 renal) is reported as 15.3 µM, the TGI (CAKI-1 renal) is reported as 69.2 µM and the GI50 (A549 NSCLC) is reported as 19.2 µM. For the same compound, the TGI (A549 NSCLC) was over 100 µM, the GI50 (T-47D breast) was 8.94 µM and the TGI (T-47D breast) was over 100 µM. The GI50 (MDA-MB-231 breast) was 10.5 µM, the TGI (MDA-MB-231 breast) was 66.3 µM and the GI50 (SR leukemia) was 26 µM. It also gave a TGI (SR leukemia) of over 100 µM, a GI50 (HS 578T breast) of 11.4 µM and a TGI (HS 578T breast) of over 100 µM. The GI50 (UACC-257 melanoma) was 29.8 µM, the TGI (UACC-257 melanoma) was over 100 µM and the GI50 (ACHN renal) was 21.9 µM. It also gave a TGI (ACHN renal) of over 100 µM, a GI50 (SK-MEL-28 melanoma) of 40.3 µM and a TGI (SK-MEL-28 melanoma) of over 100 µM. For the same compound, the GI50 (OVCAR-3 ovarian) was 27.4 µM, the TGI (OVCAR-3 ovarian) was over 100 µM and the GI50 (SNB-19 CNS) was 45.6 µM. The TGI (SNB-19 CNS) was over 100 µM, the GI50 (RXF 393 renal) was 11.3 µM and the TGI (RXF 393 renal) was 37.6 µM. It also gave a GI50 (EKVX NSCLC) of 3.14 µM, a TGI (EKVX NSCLC) of 88.4 µM and a GI50 (HT29 colon) of 10.8 µM. For the same compound, the TGI (HT29 colon) was 25.5 µM, the GI50 (A498 renal) was 3.38 µM and the TGI (A498 renal) was 55.1 µM. The GI50 (MALME-3M melanoma) was 31.5 µM, the TGI (MALME-3M melanoma) was 93 µM and the GI50 (SK-MEL-5 melanoma) was 24 µM. For the same compound, the TGI (SK-MEL-5 melanoma) was over 100 µM, the GI50 (LOX IMVI melanoma) was 13.7 µM and the TGI (LOX IMVI melanoma) was over 100 µM. It also gave a GI50 (HCC-2998 colon) of 29.1 µM, a TGI (HCC-2998 colon) of over 100 µM and a GI50 (MOLT-4 leukemia) of 21 µM. The TGI (MOLT-4 leukemia) was over 100 µM, the GI50 (NCI-H460 lung) was 17.9 µM and the TGI (NCI-H460 lung) was over 100 µM. The GI50 (NCI-H23 lung) was 18.4 µM, the TGI (NCI-H23 lung) was 60.4 µM and the GI50 (OVCAR-8 ovarian) was 21.4 µM. It also gave a TGI (OVCAR-8 ovarian) of over 100 µM, a GI50 (RPMI-8226 leukemia) of 18.7 µM and a TGI (RPMI-8226 leukemia) of over 100 µM. The GI50 (HL-60(TB) leukemia) was 51.5 µM, the TGI (HL-60(TB) leukemia) was over 100 µM and the GI50 (SW-620 colon) was 26.4 µM. The TGI (SW-620 colon) was over 100 µM, the GI50 (KM12 colon) was 13.5 µM and the TGI (KM12 colon) was 52.4 µM. It also gave a GI50 (SK-MEL-2 melanoma) of 24.1 µM, a TGI (SK-MEL-2 melanoma) of over 100 µM and a GI50 (SF-268 CNS) of 43.4 µM. The TGI (SF-268 CNS) was over 100 µM, the GI50 (HCT-15 colon) was 14.1 µM and the TGI (HCT-15 colon) was 84.8 µM. It also gave a GI50 (MDA-MB-435) of 17.8 µM, a TGI (MDA-MB-435) of 69.7 µM and a GI50 (IGROV1 ovarian) of 12.7 µM. For the same compound, the TGI (IGROV1 ovarian) was over 100 µM, the GI50 (TK-10 renal) was 19.2 µM and the TGI (TK-10 renal) was over 100 µM. The GI50 (SN12C renal) was 24.8 µM, the TGI (SN12C renal) was over 100 µM and the GI50 (PC-3 prostate) was 8.4 µM. The TGI (PC-3 prostate) was over 100 µM, the GI50 (CCRF-CEM leukemia) was 11.8 µM and the TGI (CCRF-CEM leukemia) was over 100 µM. The GI50 (U251 CNS) was 17.7 µM, the TGI (U251 CNS) was over 100 µM and the GI50 (SNB-75 CNS) was 21.6 µM. The TGI (SNB-75 CNS) was over 100 µM, the GI50 (SK-OV-3 ovarian) was 29 µM and the TGI (SK-OV-3 ovarian) was over 100 µM. It also gave a GI50 (HOP-92 NSCLC) of 1.93 µM, a TGI (HOP-92 NSCLC) of 20 µM and a GI50 (OVCAR-4 ovarian) of 15.4 µM. It also gave a TGI (OVCAR-4 ovarian) of over 100 µM, a GI50 (OVCAR-5 ovarian) of 20.9 µM and a TGI (OVCAR-5 ovarian) of 89.1 µM. It also gave a GI50 (HOP-62 NSCLC) of 18.4 µM, a TGI (HOP-62 NSCLC) of over 100 µM and a GI50 (SF-295 CNS) of 12.6 µM. It also gave a TGI (SF-295 CNS) of 77.6 µM, a GI50 (NCI-H522 lung) of 16.2 µM and a TGI (NCI-H522 lung) of 36.7 µM. It also gave a GI50 (MCF7 breast) of 12.2 µM, a TGI (MCF7 breast) of over 100 µM and a GI50 (DU-145 prostate) of 20.4 µM. For the same compound, the TGI (DU-145 prostate) was 80.3 µM, the GI50 (BT-549 breast) was 32.9 µM and the TGI (BT-549 breast) was over 100 µM. The GI50 (SF-539 CNS) was 37.9 µM, the TGI (SF-539 CNS) was over 100 µM and the GI50 (COLO 205 colon) was 11.9 µM. For the same compound, the TGI (COLO 205 colon) was 32.5 µM, the GI50 (K-562 leukemia) was 21.4 µM and the TGI (K-562 leukemia) was over 100 µM. For the same compound, the GI50 (NCI/ADR-RES ovarian) was 21.1 µM, the TGI (NCI/ADR-RES ovarian) was over 100 µM and the GI50 (NCI-H226 lung) was 38.8 µM. The TGI (NCI-H226 lung) was over 100 µM, the GI50 (UACC-62 melanoma) was 16.7 µM and the TGI (UACC-62 melanoma) was 72.4 µM. For the same compound, the GI50 (HCT-116 colon) was 7.68 µM and the TGI (HCT-116 colon) was 26.5 µM.
